Measurements reported in ChEMBL document CHEMBL5727966, “Compositions and methods for treating disorders of circadian and diurnal rhythms using prokineticin 2 agonists and antagonists” (2020).

Assay: Aequorin-Based Luminescent Assay : An aequorin-based luminescent assay for calcium mobilization was used to measure mobilization of intracellular Ca2+ (Bullock et al., Mol Pharmacol 65, 582-588, 2004). Chinese hamster ovary (CHO) cells stably expressing photoprotein aequorin and recombinant PKR1 or PKR2 were tested by this method. Briefly, the cells were charged in Opti-MEM™ (Invitrogen) containing 8 μM of coelenterazine cp at 37° C. for 2 hours. Cells were detached by brief trypsinization and maintained in Hank's Balanced Salt Solution (HBSS) plus 10 mM HEPES (pH7.5) and 0.1% BSA at about 5×10^5 cells/ml. Luminescence measurements were made using a Berthold luminometer.All compounds were diluted in HBSS plus 10 mM HEPES (pH7.5) and 0.1% BSA. To test the agonist activity, 100 μl of cells were injected into the tubes with 20 μl of compounds. For antagonist assays, 80 μl cells were incubated in the tubes with 20 μl different concentrations of antagonists at room temperature for 20 minutes, and then 100 μl of recombinant PK2 were injected. The IC50 obtained from the assays were then converted to Ki values using the formula: IC50/(1+[PK2]/EC50PK2).
Format: cell-based

`CC(C)CN(Cc1cc(Cl)c2c(c1)OCCCO2)C(=O)C1CN(Cc2cccc3nc[nH]c23)CCO1` (stereo unspecified) showed a Ki of 8.4 nM.
